The text below walks through data of patent publication US10662193B2, “Carbazole and carboline compounds for use in the diagnosis, treatment, alleviation or prevention of disorders associated with amyloid or amyloid-like proteins” (AC IMMUNE SA, priority 2014, dated 2020).

Test [1] deals with tau tangles/Aβ plaques on AD brain sections. Briefly: Assay 1: direct staining of human Alzheimer's disease brain sections (fluorescence). In kind it is binding. Conditions: for Direct staining of tau tangles/Aβ plaques on AD brain sections at 100 μM: human AD brain sections, fluorescence, cell does not say tangles or plaques. Set-up: key to Direct staining of tau tangles/Aβ plaques on AD brain sections at 100 μM / Direct staining of tau tangles on AD brain sections at 100 μM / Direct staining of Aβ plaques on AD brain sections at 100 μM / Direct staining of tau tangles on AD brain sections (footnote a: at 250 μM): − (No); +++ (strong); ++ (good); + (weak). The gist of the method:
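Frozen […] amygdala sections from Braak V-VI AD donors, PFA-fixed, incubated with compound at 100 μM in 50% ethanol for 20 min at room temperature in the dark. Sudan Black quenched autofluorescence, then staining detected by fluorescence microscopy.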

Test [2] relates to tau tangles on AD brain section. Briefly: Assay 1: displacement of RefA on human AD brain sections (fluorescence). In kind it is binding. Conditions: for Selectivity (tau/Abeta): ratio of competition on tau tangles to competition on Aβ plaques. The method, then: Direct Binding of Compounds of this Invention to Human Alzheimer's Disease Brain Sections and/or Displacement of RefA and Compound B
Frozen sections with a thickness of […] from the amygdala of donors diagnosed with Braak stage V-VI Alzheimer's Disease (Braak, H.; Braak, E. Acta Neuropathol., 1991, 82, 239-259), were purchased from a commercial provider (Tissue Solutions) and kept at −80° C. until use.
Displacement of RefA and Compound B
Brain sections were mainly treated as described above. Test compounds were, however, incubated on the section at 250 μM in 50% ethanol for 20 min at room temperature, and then directly incubated with the fluorescent reference compounds RefA and Compound B, each at 1 μM in 50% ethanol for 20 min at room temperature. RefA and Compound B stainings were visualized using the 470 nm and 365 nm excitation filters, respectively. Images were acquired, and tangles and plaques quantified using the NIS-Element software. Only those compounds not directly staining tangles or plaques at the same wavelengths as RefA and Compound B were tested in the displacement assay.
Structure of RefA (Tago et al., J. Label. Compd. Radiopharm. 2013, DOI: 10.1002/jlcr.3133)

The test system of test [3] is Aβ plaques on AD brain section. Briefly: Assay 1: displacement of Compound B on human AD brain sections (fluorescence). The class given is binding. The method, then:
Direct Binding of Compounds of this Invention to Human Alzheimer's Disease Brain Sections and/or Displacement of RefA and Compound B Frozen sections with a thickness of […] from the amygdala of donors diagnosed with Braak stage V-VI Alzheimer's Disease (Braak, H.; Braak, E. Acta Neuropathol., 1991, 82, 239-259), were purchased from a commercial provider (Tissue Solutions) and kept at -80° C. until use. Displacement of RefA and Compound B Brain sections were mainly treated as described above. Test compounds were, however, incubated on the section at 250 μM in 50% ethanol for 20 min at room temperature, and then directly incubated with the fluorescent reference compounds RefA and Compound B, each at 1 μM in 50% ethanol for 20 min at room temperature. RefA and Compound B stainings were visualized using the 470 nm and 365 nm excitation filters, respectively. Images were acquired, and tangles and plaques quantified using the NIS-Element software. Only those compounds not directly staining tangles or plaques at the same wavelengths as RefA and Compound B were tested in the displacement assay. Structure of Compound B (prepared by a similar procedure described for […] in WO2010/011964): […]

The next test addresses AD brain-enriched PHF (Homo sapiens, UniProt P10636). Briefly: Assay 2 (filter trap): [3H]RefA radio-binding competition assay and Ki on PHF. As to conditions: [^3H]RefA 10 nM; for Ki: PHF diluted 1/80, compound 0.12 nM to 50 μM. As to the method: Displacement of [^3H]RefA by Compounds of this Invention
50 g of frontal lobe tissue from post-mortem brain of an Alzheimer's disease (AD) patient were obtained from the London Tissue Bank. The patient was a […] and died […]. The brain sample was collected 5 hours post-mortem and characterized for Braak disease stage (Braak, H.; Braak, E. Acta Neuropathol., 1991, 82, 239-259) as stage VI. For the enrichment of PHF's, around 15 g of the AD human brain was thawed on ice and homogenized with 50 ml of homogenization buffer [0.75 M NaCl in RAB buffer (100 mM 2-(N-morpholino) ethanesulfonic acid (MES), 1 mM EGTA, 0.5 mM MgSO4, 2 mM DTT, pH 6.8) supplemented with protease inhibitors (Complete; Roche 11697498001) in a glass Dounce homogenizer. The homogenate was then incubated at 4° C. for 20 min to let any residual microtubules depolymerize, before the homogenate was transferred into polycarbonate centrifuge bottles (16×76 mm; Beckman 355603) and centrifuged at 11,000 g (12,700 RPM) in an ultracentrifuge (Beckman, XL100K) for 20 min at 4° C. using the pre-cooled 70.1 rotor (Beckman, 342184). Pellets were kept on ice. Supernatants were pooled into polycarbonate bottles and centrifuged again at 100,000 g (38,000 RPM) for 1 h at 4° C. in the 70.1 Ti rotor to isolate PHF-rich pellets, whereas soluble tau remained in the supernatants. The pellets from the first and second centrifugations were re-suspended in 120 mL of extraction buffer [10 mM Tris-HCl pH 7.4, 10% sucrose, 0.85 M NaCl, 1% protease inhibitor (Calbiochem 539131), 1 mM EGTA, 1% phosphatase inhibitor (Sigma P5726 and P0044)]. The solution was then transferred into polycarbonate centrifuge bottles (16×76 mm; Beckman 355603) and centrifuged at 15,000 g (14,800 RPM) in an ultracentrifuge (Beckman, XL100K) for 20 min at 4° C. using the 70.1 Ti rotor. In the presence of 10% sucrose and at low speed centrifugation, most PHF remained in the supernatant whereas intact or fragmented NFTs and larger PHF aggregates were pelleted. The pellets were discarded. 20% Sarkosyl (Sigma L7414-10ML) was added to the supernatants to a final concentration of 1% and stirred at room temperature for 1 h. This solution was then centrifuged into polycarbonate bottles at 100,000 g (38,000 RPM) for 1 h at 4° C. in the 70.1 Ti rotor, and the pellets containing PHF-rich material were re-suspended in a total final volume of 1.5 mL of PBS, aliquoted and stored at −80° C.
[^3H]RefA Radio-Binding Competition Assay
AD brain-enriched PHF diluted 1/80 were incubated in the presence of [^3H]RefA at 10 nM and the example compounds of this invention at 2.5 μM (250× excess), for 45 minutes at 37° C. Samples were then analyzed by on GF/B filter plates as described above (in the section “[^3H]RefA radio-binding assay and determination of the dissociation constant (Kd)). Non-specific signal was determined again with an excess of un-labeled RefA and specific binding calculated by subtracting the non-specific signal from the total signal. Competition was calculated as percent, where 0% was defined as the specific binding in the presence of vehicle (2.8% DMSO in PBS) and 100% as the values obtained in the presence of excess cold RefA. Similar assays were performed to determine the competition of the cold compounds on [^3H]RefA on in vitro aggregated recombinant human tau or Abeta1-42 For both recombinant proteins, 20 μg/mL of aggregates were incubated with 10 nM of [^3H]RefA for recombinant human tau or 80 nM of [^3H]RefA for recombinant human Abeta1-42.
Determination of the Binding Affinity (Ki)
Samples were then analyzed on GF/B filter plates as described above and Ki values calculated using Prism V5 (GraphPad).

Sequence of AD brain-enriched PHF (P10636 623-708 limits assumed): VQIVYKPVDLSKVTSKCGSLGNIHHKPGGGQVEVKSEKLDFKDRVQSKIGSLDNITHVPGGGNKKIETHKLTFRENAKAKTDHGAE

For the compound `Cn1c2ccncc2c2ccc(Nc3cccc(N4CCOCC4)c3)nc21` [Example 1], the “Direct staining of tau tangles/Aβ plaques on AD brain sections at 100 μM” value in test [1] (100 μM compound) is “−”. Besides, in test [2], the “Competition on AD brain section tau tangles (1 μM RefA vs. 250 μM compound)” value (“Competition … (1 μM RefA vs. 250 μM compound)” below) came to 84% and the “Selectivity (tau/Abeta)” value is listed as roughly 2.6 fold. In test [3], the “Competition on AD brain section Aβ plaques (1 μM Compound B vs 250 μM compound)” value was 32%. Further, at AD brain-enriched PHF, the Ki (in general, the equilibrium dissociation constant of an inhibitor or competing ligand from its target) came out at 78 nM.
In the case of `Cn1c2ccncc2c2ccc(Nc3ccc(F)c(N4CCOCC4)c3)nc21` [Example 3], the “Direct staining of tau tangles/Aβ plaques on AD brain sections at 100 μM” value in test [1] (100 μM compound) was “−”. Besides, in test [2], the “Competition … (1 μM RefA vs. 250 μM compound)” value turned out to be 78% and the “Selectivity (tau/Abeta)” value is reported as roughly 9.8 fold. In addition, the “Competition on AD brain section Aβ plaques (1 μM Compound B vs 250 μM compound)” value in test [3] is on record as 8%. This compound also registered a Ki on AD brain-enriched PHF of 233 nM.
In the case of `Cn1c2ccncc2c2ccc(Nc3cccc(OC(F)F)c3)nc21` [Example 4], the “Direct staining of tau tangles on AD brain sections (footnote a: at 250 μM)” value in test [1] (250 μM compound, tangles) is given as “+ (tangles)^a”. Further, in test [2], the “Competition … (1 μM RefA vs. 250 μM compound)” value is recorded as 91% and the “Selectivity (tau/Abeta)” value is roughly 5.4 fold. In addition, the “Competition on AD brain section Aβ plaques (1 μM Compound B vs 250 μM compound)” value in test [3] is 17%. At AD brain-enriched PHF, this compound gave a Ki of 3.3 nM.
Turning to `Cn1c2ccncc2c2ccc(Nc3ccc(F)cc3N3CCOCC3)nc21` [Example 5], the “Direct staining of tau tangles/Aβ plaques on AD brain sections at 100 μM” value in test [1] (100 μM compound) is given as “−”. Moreover, the “Competition … (1 μM RefA vs. 250 μM compound)” value in test [2] is reported as 0%. In addition, the “Competition on AD brain section Aβ plaques (1 μM Compound B vs 250 μM compound)” value in test [3] was 12%. This compound also showed a Ki at AD brain-enriched PHF of 305 nM.
`Cn1c2ccncc2c2ccc(Nc3cc(F)cc(N4CCOCC4)c3)nc21` [Example 7]: in test [1] (100 μM compound, tangles), the “Direct staining of tau tangles on AD brain sections at 100 μM” value is listed as “++ (tangles)”. In addition, in test [2], the “Competition … (1 μM RefA vs. 250 μM compound)” value came out at 84% and the “Selectivity (tau/Abeta)” value is on record as greater than 84 fold. Moreover, the “Competition on AD brain section Aβ plaques (1 μM Compound B vs 250 μM compound)” value in test [3] amounted to 0%. Moreover, at AD brain-enriched PHF, the Ki stood at 326 nM.
For `Cn1c2ccncc2c2ccc(Nc3cccc(N4CCOCC4)c3F)nc21` [Example 12], in test [1] (100 μM compound), the “Direct staining of tau tangles/Aβ plaques on AD brain sections at 100 μM” value is given as “−”. In test [2], the “Competition … (1 μM RefA vs. 250 μM compound)” value came to 98% and the “Selectivity (tau/Abeta)” value is reported as greater than 98 fold. Moreover, the “Competition on AD brain section Aβ plaques (1 μM Compound B vs 250 μM compound)” value in test [3] is 0%. Further, on AD brain-enriched PHF, the Ki is 165 nM.
For `Cn1c2ccncc2c2ccc(N3CCC(CCF)CC3)nc21` [Example 151], the “Direct staining of tau tangles/Aβ plaques on AD brain sections at 100 μM” value in test [1] (100 μM compound) is recorded as “−”. For the same compound, in test [2], the “Competition … (1 μM RefA vs. 250 μM compound)” value amounted to 99% and the “Selectivity (tau/Abeta)” value is given as ~2.4-fold. Further, in test [3], the “Competition on AD brain section Aβ plaques (1 μM Compound B vs 250 μM compound)” value amounted to 42%.
`Cn1c2ccncc2c2ccc(N3CCC(CCOCCF)CC3)nc21` [Example 155]: in test [1] (100 μM compound, plaques), the “Direct staining of Aβ plaques on AD brain sections at 100 μM” value was “+ (tangles) + (plaques)”. Also, in test [1] (100 μM compound, tangles), the “Direct staining of tau tangles on AD brain sections at 100 μM” value is reported as “+ (tangles) + (plaques)”. In test [2], the “Competition … (1 μM RefA vs. 250 μM compound)” value was found to be 90% and the “Selectivity (tau/Abeta)” value is on record as ~6-fold. Further, the “Competition on AD brain section Aβ plaques (1 μM Compound B vs 250 μM compound)” value in test [3] worked out at 15%.
For `CN1CCc2c(c3ccc(Nc4ccc(F)cc4N4CCOCC4)nc3n2C)C1=O` [Example 175], the “Direct staining of tau tangles/Aβ plaques on AD brain sections at 100 μM” value in test [1] (100 μM compound) was “−”. In test [2], the “Competition … (1 μM RefA vs. 250 μM compound)” value amounted to 6%. Further, the “Competition on AD brain section Aβ plaques (1 μM Compound B vs 250 μM compound)” value in test [3] is given as 0%. Also, the inhibition (as a rule, the relative decrease from the control value, in per cent) at 2.5 µM at AD brain-enriched PHF (compound 2.5 μM, no Ki determined) was less than 50%.
